According to patent publication EP0408782A1, “Antihypoxic agent” (NAUCHNOISSLEDOVATELSKI CHIMIKOPHARMATZEVTICHEN INSTITUT, priority 1989, dated 1991):
Read-outs that look alike come from different tables or passages of the source.

Experiments:
mice [1] = test: hypobaric hypoxia in mice (survival time in decompression chamber, 210 mmHg); assay type: in vivo, white mice line H; settings: 1 hour before the hypoxia
Method: EXAMPLE 1: Pharmacological study: Cerebro-protective anti-hypoxic effect using the method "hypobaric hypoxia" in mice. The experiments are carried out on white mice line H (18-22 g) in groups of 8 animals. […] The survival time (in seconds) from the beginning of the hypoxia till the death of the animals was measured. The results were calculated as a percentage towards the control group. […]

mice [2] = test: complete ischaemia by decapitation in mice (duration of respiratory movements of the isolated head); assay type: in vivo, white mice line H; settings: 1 hour before
Method: Example 2. Pharmacological study of the cerebro-protective anti-ischaemic effect using the method of"complete ischaemia by decapitation" in mice. The experiments are carried out on white mice line H (18-22g) in groups of 8 animals. Complete […] caused by means of a decapitation of the animals using the method of Hollowach-Thurston et al.(9). The duration of the respiratory movements of the isolated head (in seconds) was measured. The results are calculated as a percentage towards the control group. […]

mice [3] = settings: mouse, in vivo
in vivo = settings: mouse

| Structure (SMILES) | Increase of the resistancy towards hypoxia (% towards the control group) (mice [1]; 10 mg/kg intraperitoneally) | Increase of the resistance towards ischaemia (% towards the control group) (mice [2]; 10 mg/kg intraperitoneally) | LD₅₀ (mice [3]; ip) | LD₅₀ (mice [3]; po) | LD50 (in vivo; ip) [mg/kg] | LD50 (in vivo; po) [mg/kg] | Increase of the resistancy towards hypoxia (% towards the control group) (mice [1]; 1600 mg/kg intraperitoneally) | Increase of the resistance towards ischaemia (% towards the control group) (mice [2]; 1600 mg/kg intraperitoneally) |
| --- | --- | --- | --- | --- | --- | --- | --- | --- |
| Fc1ccc(C(c2ccc(F)cc2)N2CCN(C/C=C/c3ccccc3)CC2)cc1 [Flunarizine] | 11,7% | 42,8% | 204/158+264/ mg/kg | 232/182+295/ mg/kg | 204 | 232 |  |  |
| NC(=O)CN1CCCC1=O [Piracetam, 2-oxo-1-pyrrolidineacetamide] |  |  |  |  | 8000 | 8000 | 22,8% | 27,9% |
